Laboratory results from patent US20210198277A1, “AMINE-SUBSTITUTED ARYL OR HETEROARYL COMPOUNDS” (Epizyme, Inc., priority 2016, published 2021).
Where two headings read alike, the source gives them in different places.

Biological target: T1, EHMT2 (Homo sapiens, UniProt Q96KQ7)
T1 construct: host or cells: MDA-MB-231
T1 sequence (Q96KQ7 1-1210): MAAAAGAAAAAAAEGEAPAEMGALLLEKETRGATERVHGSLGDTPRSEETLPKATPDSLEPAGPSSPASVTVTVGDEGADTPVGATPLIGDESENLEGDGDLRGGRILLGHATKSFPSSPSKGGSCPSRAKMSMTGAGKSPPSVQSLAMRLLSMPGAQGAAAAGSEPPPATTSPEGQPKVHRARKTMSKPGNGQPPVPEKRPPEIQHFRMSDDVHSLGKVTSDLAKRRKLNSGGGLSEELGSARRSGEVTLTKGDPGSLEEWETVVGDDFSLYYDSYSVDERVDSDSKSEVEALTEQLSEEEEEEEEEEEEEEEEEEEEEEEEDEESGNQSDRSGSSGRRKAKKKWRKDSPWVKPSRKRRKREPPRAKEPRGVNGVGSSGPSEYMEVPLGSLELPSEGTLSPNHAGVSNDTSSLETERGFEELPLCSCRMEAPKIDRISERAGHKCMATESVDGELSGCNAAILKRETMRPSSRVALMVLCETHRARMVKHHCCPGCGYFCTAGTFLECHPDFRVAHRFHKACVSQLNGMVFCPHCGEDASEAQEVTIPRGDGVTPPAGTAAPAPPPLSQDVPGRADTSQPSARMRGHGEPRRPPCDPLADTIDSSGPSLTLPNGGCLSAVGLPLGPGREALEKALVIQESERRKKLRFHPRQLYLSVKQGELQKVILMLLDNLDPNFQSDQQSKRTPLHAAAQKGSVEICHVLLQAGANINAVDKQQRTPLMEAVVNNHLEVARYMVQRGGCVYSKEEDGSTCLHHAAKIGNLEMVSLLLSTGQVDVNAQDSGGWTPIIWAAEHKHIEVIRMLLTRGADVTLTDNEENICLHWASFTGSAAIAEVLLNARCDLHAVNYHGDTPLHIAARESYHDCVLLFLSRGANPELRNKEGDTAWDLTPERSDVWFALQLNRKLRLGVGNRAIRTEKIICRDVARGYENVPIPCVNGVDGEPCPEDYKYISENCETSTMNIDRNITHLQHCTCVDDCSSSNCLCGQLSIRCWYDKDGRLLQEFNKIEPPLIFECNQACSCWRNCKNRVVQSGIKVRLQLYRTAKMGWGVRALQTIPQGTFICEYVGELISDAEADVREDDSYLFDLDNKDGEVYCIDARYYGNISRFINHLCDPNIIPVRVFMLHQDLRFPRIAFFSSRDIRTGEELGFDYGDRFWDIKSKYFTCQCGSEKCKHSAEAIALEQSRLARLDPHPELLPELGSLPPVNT
Experiment: MDA-MB-231 H3K9me2 in-cell Western assay (EHMT2 ICW)
Type: cell-based
Settings: MDA-MB-231 H3K9me2 in-cell Western, read-out: EHMT2 ICW (IC50 μM)
How it was run: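 For 48 h at 37 °C, breast cancer MDA-MB-231 cells were incubated with compound, then fixed and immunostained for H3K9me2, with DRAQ5 used for normalisation. Each well's signal ratio yielded percent inhibition, and IC50 values were derived by fitting a four-parameter curve.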

| SMILES | IC50 (Table III) [µM] | IC50 (Table II) [µM] |
| --- | --- | --- |
| CNc1ccnc(Nc2ccc(OC)c(OC[C@H](O)CN3CCCC3)c2)n1 (single isomer, unassigned) [Compound 376] | 1 to 10 | – |
| CNc1ccnc(Nc2ccc(OC)c(OC[C@@H](O)CN3CCCC3)c2)n1 (single isomer, unassigned) [Compound 377] | > 10 | – |
| CNc1ccnc(Nc2ccc(OC)c(OCC3CCN(C)C3)c2)n1 (single isomer, unassigned) [Compound 415] | 1 to 10 | – |
| CNc1ccnc(Nc2ccc(OC)c(OCC3CCN(C)C3)c2)n1 (single isomer, unassigned) [Compound 416] | 0.1 to 1 | – |
| CNc1cc(C)nc(Nc2ccc(OC)c(OCC3CCN(C)C3)c2)n1 (single isomer, unassigned) [Compound 417] | 1 to 10 | – |
| CNc1cc(C)nc(Nc2ccc(OC)c(OCC3CCN(C)C3)c2)n1 (single isomer, unassigned) [Compound 418] | < 0.1 | – |
| CNc1ccnc(Nc2ccc(OC)c(OCCCN3CCCC3)c2)n1 [Compound 1, N^2-(4-methoxy-3-(3-(pyrrolidin-1-yl)propoxy)phenyl)-N^4-methylpyrimidine-2,4-diamine] | – | < 0.1 |
| COc1ccc(Nc2nccc(NCC3CCN(CC(F)F)CC3)n2)cc1OCCCN1CCCC1 [Compound 2, N^4-((1-(2,2-difluoroethyl)piperidin-4-yl)methyl)-N^2-(4-methoxy-3-(3-(pyrrolidin-1-yl)propoxy)phenyl)pyrimidine-2,4-diamine] | – | 0.1 to 1 |
| COc1ccc(Nc2nccc(NCC3CCOCC3)n2)cc1OCCCN1CCCC1 [Compound 3, N^2-(4-methoxy-3-(3-(pyrrolidin-1-yl)propoxy)phenyl)-N^4-((tetrahydro-2H-pyran-4-yl)methyl)pyrimidine-2,4-diamine] | – | 0.1 to 1 |
| COc1ccc(Nc2nccc(NCC3CCN(CC(F)(F)F)CC3)n2)cc1OCCCN1CCCC1 [Compound 4, N^2-(4-methoxy-3-(3-(pyrrolidin-1-yl)propoxy)phenyl)-N^4-((1-(2,2,2-trifluoroethyl)piperidin-4-yl)methyl)pyrimidine-2,4-diamine] | – | 0.1 to 1 |
| COc1ccc(Nc2nccc(NC3CCOCC3)n2)cc1OCCCN1CCCC1 [Compound 5, N^2-(4-methoxy-3-(3-(pyrrolidin-1-yl)propoxy)phenyl)-N^4-(tetrahydro-2H-pyran-4-yl)pyrimidine-2,4-diamine] | – | 0.1 to 1 |
| COc1ccc(Nc2nccc(NCC(=O)N3CCOCC3)n2)cc1OCCCN1CCCC1 [Compound 51] | – | 1 to 10 |
| COc1ccc(Nc2nccc(NCC(=O)N(C)c3ccccc3)n2)cc1OCCCN1CCCC1 [Compound 52] | – | 1 to 10 |
| COc1ccc(Nc2nccc(N3Cc4cn[nH]c4C3)n2)cc1OCCCN1CCCC1 [Compound 53] | – | 1 to 10 |
| COc1ccc(Nc2nccc(NC3CCN(C(C)=O)CC3)n2)cc1OCCCN1CCCC1 [Compound 54] | – | 1 to 10 |
| COc1ccc(Nc2ncc(C)c(NCC3CCN(C(C)=O)CC3)n2)cc1OCCCN1CCCC1 [Compound 55] | – | 1 to 10 |
| COc1ccc(Nc2nccc(N(C)Cc3ccncc3)n2)cc1OCCCN1CCCC1 [Compound 56] | – | 1 to 10 |
| COc1ccc(Nc2nccc(NCC3CCN(C(C)=O)CC3)n2)cc1COCCN1CC(F)C1 [Compound 57] | – | 1 to 10 |
| c1cc(Nc2nccc(NCC3CCNCC3)n2)cc(OCCCN2CCCC2)c1 [Compound 88] | – | 1 to 10 |

| SMILES | IC50 (Table III) [µM] | IC50 (Table II) [µM] |
| --- | --- | --- |
| COc1ccc(Nc2nccc(NCC3CCNCC3)n2)cc1OCCCN1CCCC1 [Compound 90] | – | > 10 |
| CNc1cc(OC)nc(Nc2ccc(OC)c(OCCCN3CCCC3)c2)n1 [Compound 261, 6-methoxy-N^2-(4-methoxy-3-(3-(pyrrolidin-1-yl)propoxy)phenyl)-N^4-methylpyrimidine-2,4-diamine] | > 10 | – |
| CNc1ccnc(Nc2ccc3c(c2)C(=O)N(CCN2CCCC2)CC3)n1 [Compound 264, 7-((4-(methylamino)pyrimidin-2-yl)amino)-2-(2-(pyrrolidin-1-yl)ethyl)-3,4-dihydroisoquinolin-1(2H)-one] | > 10 | – |
| COc1ccc(Nc2cccc3[nH]ccc23)cc1OCCCN1CCCC1 [Compound 265, N-(4-methoxy-3-(3-(pyrrolidin-1-yl)propoxy)phenyl)-1H-indol-4-amine] | > 10 | – |
| COc1ccc(Nc2nccc3[nH]ccc23)cc1OCCCN1CCCC1 [Compound 266, N-(4-methoxy-3-(3-(pyrrolidin-1-yl)propoxy)phenyl)-1H-pyrrolo[3,2-c]pyridin-4-amine] | 1 to 10 | – |
| CNc1nccc(Nc2ccc(OC)c(OCCCN3CCCC3)c2)n1 [Compound 355] | 0.1 to 1 | – |
| CNc1cc(C)nc(Nc2ccc(F)c(OCCCN3CCCC3)c2)n1 [Compound 356] | > 10 | – |
| CNc1nc(Nc2ccc(OC)c(OCCCN3CCCC3)c2)ncc1C#N [Compound 357] | > 10 | – |
| CNc1nc(Nc2ccc(OC)c(OCCCN3CCCC3)c2)ncc1C(F)(F)F [Compound 358] | > 10 | – |
| CNc1ncc(C(F)(F)F)c(Nc2ccc(OC)c(OCCCN3CCCC3)c2)n1 [Compound 359] | > 10 | – |
| CNc1nc(Nc2ccc(OC)c(OCCCN3CCCC3)c2)nc(C)c1F [Compound 360] | 0.1 to 1 | – |
| CNc1ccnc(Nc2ccc(OC)c(OCCN3CCOCC3)c2)n1 [Compound 361] | > 10 | – |
| CNc1cc(C(F)(F)F)nc(Nc2ccc(OC)c(OCCCN3CCCC3)c2)n1 [Compound 362] | > 10 | – |
| CNc1ccnc(Nc2ccc3c(c2)N(C(=O)CCN(C)C)CC3)n1 [Compound 363] | > 10 | – |
| CCc1cc(NC)nc(Nc2ccc(OC)c(OCCCN3CCCC3)c2)n1 [Compound 364] | 0.1 to 1 | – |
| COc1ccc(Nc2nccc(CNC3CCOCC3)n2)cc1OCCCNc1ccccc1 [Compound 365] | > 10 | – |
| COc1ccc(Nc2cnnc(NCC3CCN(C(C)=O)CC3)c2)cc1OCCCN1CCCC1 [Compound 366] | > 10 | – |
| COc1ccc(Nc2nccc(NCC3CCOCC3)n2)cc1OC1CC2(C1)CN(C)C2 [Compound 367] | > 10 | – |
| CNc1ccnc(Nc2ccc(F)c(OCCCN3CCCC3)c2)n1 [Compound 368] | > 10 | – |

| SMILES | IC50 (Table III) [µM] | IC50 (Table II) [µM] |
| --- | --- | --- |
| COc1ccc(Nc2nccc(N)n2)cc1OCCCN1CCCC1 [Compound 369] | 1 to 10 | – |
| CNc1cnnc(Nc2ccc(OC)c(OCCCN3CCCC3)c2)c1 [Compound 370] | > 10 | – |
| CNc1cncc(Nc2ccc(OC)c(OCCCN3CCCC3)c2)n1 [Compound 371] | > 10 | – |
| CNc1cc(Nc2cc(OCCCN3CCCC3)c(OC)cn2)ccn1 [Compound 372] | 0.1 to 1 | – |
| COc1ccc(Nc2nccc3[nH]ncc23)cc1OCCCN1CCCC1 [Compound 373] | > 10 | – |
| COc1ccc(Nc2ccnc3[nH]ccc23)cc1OCCCN1CCCC1 [Compound 374] | > 10 | – |
| CC(C)Nc1ccnc(Nc2cccc(OCCCN3CC[C@@H](F)C3)c2)n1 [Compound 375] | > 10 | – |
| COc1ccc(Nc2nccc(NC(C)C3CCOCC3)n2)cc1OCCCN1CCCC1 (stereo not drawn) [Compound 378] | 0.1 to 1 | – |
| CNc1ccnc(Nc2ccc(OC)c(OCCCN3CCCC3)c2)c1 [Compound 379] | 1 to 10 | – |
| CNc1ccnc(Nc2ccc3ccn(CCN4CCCC4)c(=O)c3c2)n1 [Compound 381] | > 10 | – |
| CNc1ccnc(Nc2ccc(OC)c(COCCN3CCCC3)c2)n1 [Compound 382] | 0.1 to 1 | – |
| CNc1ccnc(Nc2cccc(COCCN3CCCC3)c2)n1 [Compound 383] | > 10 | – |
| CNc1cc(C#N)nc(Nc2ccc(OC)c(OCCCN3CCCC3)c2)n1 [Compound 384] | > 10 | – |
| CCc1cc(NC)nc(Nc2ccc(OC)c(OCCCN3CC[C@@H](F)C3)c2)n1 [Compound 385] | 1 to 10 | – |
| CNc1ccnc(Nc2ccc3cnn(CCN(C)C)c3c2)n1 [Compound 386] | > 10 | – |
| CNc1ccnc(Nc2ccc(OC)c(OCCCN(C)C)c2)n1 [Compound 387] | 0.1 to 1 | – |
| CNc1ccnc(Nc2ccc3cnn(CCCN(C)C)c3c2)n1 [Compound 388, N^2-(1-(3-(dimethylamino)propyl)-1H-indazol-6-yl)-N^4-methylpyrimidine-2,4-diamine] | > 10 | – |
| CNc1ccnc(Nc2ccc3c(C)nn(CCCN(C)C)c3c2)n1 [Compound 389] | > 10 | – |
| CNc1ccnc(Nc2ccc(OC)c(OCCCN3CCCCC3)c2)n1 [Compound 390] | 0.1 to 1 | – |
